# Reference: US20230174633A1, “METHODS AND COMPOSITIONS FOR MODULATING LIPID STORAGE IN ADIPOSE TISSUE” (MEMORIAL SLOAN KETTERING CANCER CENTER, priority 2020, published 2023)
# Where a chain is given by its changes, count along the chain named.
# B1: VEGFb: recombinant mouse VEGFb (R&D systems) (protein, UniProt P49766 22-207, looked up)
# Vascular endothelial growth …: PVSQFDGPSHQKKVVPWIDVYARATCQPREVVVPLSMELMGNVVKQLVPSCVTVQRCGGCCPDDGLECVPTGQHQVRMQILMIQYPSSQLGEMSLEEHSQCECRPKKKESAVKPDRVAIPHHRPQPRSVPGWDSTPGASSPADIIHPTPAPGSSARLAPSAVNALTPGPAAAAADAAASSIAKGGA
# B2: PDGFcc: mature PDGF-CC protein, growth factor domain dimer released by removal of the CUB domain; exemplary SEQ ID NO: 2 (protein, listed as Homo sapiens)
# chain: VVDLNLLTEEVRLYSCTPRNFSVSIREELKRTDTIFWPGCLLVKRCGGNCACCLHNCNECQCVPSKVTKKYHEVLQLRPKTGVRGLHKSLTDVALEHHEECDCVCRGSTGG
# modifications: homodimer
# B3: recombinant PDGFcc: Recombinant mouse PDGFcc, R&D systems Cat# 1447-PC-025/CF, active/cleaved form, SEQ ID NO: 3 (protein, listed as Mus sp.)
# chain: B2 chain with D3N, T8K, R12K, S65R, R84K, S108N, T109A
# Tests used:
# [1] = system: epididymal fat pad explants; experiment: eWAT (epididymal fat pad) explants cultured ex vivo, lipid storage by adipocytes; format: cell-based, mouse; details: Tnfrsf11a^Cre; Csf1r^f/f fat pads; 100 ng/ml PDGFcc, 10 ng/ml VEGFb or 10 ng/ml IGF1 on days 0, 3, 6
# Procedure: Whole Mount Imaging and Cytology of Sorted Macrophages. For whole mount immunofluorescence imaging, after anesthesia and blood collection by cardiac puncture, the mice were perfused with 10 mL PBS at room temperature. Approximately 3 mm^3 pieces of the tissue were incubated in 4% paraformaldehyde (PFA) (Electron Microscopy) diluted in PBS for 30 min at room temperature with agitation, then rinsed with PBS and stained with directly conjugated antibodies for 30 minutes. Then the samples were rinsed with PBS 3× and mounted on cavity slides (Sigma) with Fluoromount G (eBioscience). Approximately 50 µm thick Z-stack and tile scan were acquired with LSM880 Zeiss microscope with 40x/1.3 (oil). Image analysis was performed using Imaris (Bitplane) software.
# In Vitro Epididymal Adipose Tissue Explants. Epididymal fat pads of 4-day-old Tnfrsf11a^Cre+Csf1r^fl/fl mice and littermates were dissected and incubated in RPMI with 10% heat de-activated FBS at 37° C. for 14 days. Fresh medium was added to the explants on day 7. At the termination of the experiment, the explants were fixed in 4% PFA for 30 minutes at room temperature with agitation and then rinsed in PBS and permeabilized for 15 minutes in PBS + 0.03% Triton. Subsequently, the explants were blocked with 2% BSA and stained with directly conjugated antibodies. To remove macrophages from wt epididymal fat pads in vitro, 15 µM of the CSF1R inhibitor PLX5622 was added to explants on day 0 and 7 following the addition of fresh medium. For the in vitro rescue experiments, epididymal fat pads of Tnfrsf11a^Cre; Csf1r^fl/fl mice and littermates as well as […] treated fat pads were supplemented with 100 ng/ml of recombinant mouse PDGFcc (R&D systems), 10 ng/ml of recombinant mouse VEGFb (R&D systems), or 10 ng/ml of recombinant mouse IGF1 (R&D systems) three times on days 0, 3, and 6.
# [2] = system: Lepr^-/- (db/db) mice; experiment: PLX5622 treatment of leptin-receptor deficient mice that spontaneously develop obesity; format: in vivo, mouse
# Source text: (§1) Mice and diets. All experiments on mice were realized in accordance with an animal license issued by the Institutional Review Board (IACUC 15-04-006) from MSKCC. All mice were maintained under SPF conditions. C57B1/6J male mice were purchased from Jackson laboratories. Rosa26^LSL-Tomato (Stock No: 007908), Rosa26^LSL-^YFP (Stock No:006148), Rosa26^mTmG (Stock No: 007576) and Lepr^-/-(db/db) (herein referred to as Lepr^-/-; Stock No: 000697) mice were purchased from Jackson laboratories and bred in house. Csf1r^Cre, Csf1r^MeriCreMer, and Csf1r^fl/fl mice were obtained from J W. Pollard (The University of Edinburgh), Cx3cr1^GFP/+ mice were obtained from Drs. Dan Littman (NYU Skirball institute), Flt3^Cre mice were obtained from Thomas Boehm (Max Planck institute) and Tnfrsf11a^Cre mice were obtained from Y. Kobayashi (Matsumoto Dental University). Ccr2^-/- mice were obtained from IF. Charro (UCSF) Csf1r^-/- mice were backcrossed to FVB/NJ for more than 10 generations. Mice were fed ad libitum a rodent irradiated diet containing 45% kcal from lipids (Research Diets Inc., reference D12451i) or 10% kcal from lipids (Research Diets Inc., reference D12450hi) for 8 weeks. In mice supplemented with the CSF-1R inhibitor PLX5622 (Plexxikon), the aforementioned diets were impregnated with 1200 mg of inhibitor per kg of food. In the experiment named 45%>10% the mice were fed 45% lipid diet for 8 weeks then 10% lipid diet for 2 weeks and compared to mice fed 10% lipid diet for 10 weeks. Mice were weighed weekly. Tnfrsf11a^Cre; Csflr^f/f and Csf1r^Cre; Csf1r^f/f mice are osteopetrotic and as such lack teeth. To prevent confounding systemic effects due to nutritional intake problems, the Tnfrsf11a^Cre; Csf1r^f/f Csf1r^Cre; Csf1r^f/f and control littermates were fed a nutritionally fortified water gel. The nutritional gels were replaced every 12 hours.
# (§2) Metabolic analysis of Leptin receptor deficient mice, PLX5622-treated mice, anti-PDGFcc treated mice, and control C57Bl/6J mice. Animals were individually housed in a temperature controlled Promethion Metabolic Screening System (Sable Systems International, NV). Food intake was acquired gravimetrically and ambulatory activity was acquired using a laser matrix. Mice were acclimated to this environment on a 12 hr light/dark cycle for 48 hr before the indicated length of recording (24 hr to 120 hr) period began. Fecal bomb calorimetry was performed on feces collected during the last day of metabolic cage recording period, dehydrated in an oven at 60C for 48 hr, then combusted in technical duplicates with a Parr 6725 Semimicro Calorimeter to determine gross caloric intake.
# Triglyceride Measurement for Mice. To measure triglycerides, ~ 100 mg of mouse liver was homogenized in 100 µl of PBS + 0.05% Tween 20. Triglyceride was then measured using the free glycerol reagent (Sigma; F6428) as described in the manufacturer’s protocol and normalized to the liver weight.
# To quantify the size of the adipocytes, the software image J was used. Regions of interest (ROI) were drawn following the cellular membrane of the adipocytes and the surface of the ROI was determined by the software. 50 adipocytes were measured per field of view of the eWAT. Adipocytes were measured on 3 fields of view, taken with N-Achroplan 10x/0.25 objective. Crown-like structures (CLS) were quantified on the same fields of view. Crown like structures were defined as microscopic foci of dying adipocytes surrounded by macrophages as visualized by H&E staining.
# [3] = system: C57B1/6J mice; experiment: Treatment of C57Bl/6J mice fed 45% or 10% lipid diet (diet-induced obesity); format: in vivo, mouse; details: 1,200 mg PLX5622/kg of food
# Source text: as §1
# Glucose and insulin tolerance tests were performed as described; in brief, for the glucose tolerance test, the mice were fasted for 4h before experiment, but had water ad libitum. The weight and glycaemia were measured, and the mice were injected intraperitoneally with 2 g glucose (Thermo Scientific) per kg of body weight. Following the glucose injection, glycemia was measured every 30 min for 2 hours. For the insulin tolerance test, the mice were fasted for 4h before experiment, but had water ad libitum. The weight and the glycaemia were measured, and the mice were injected with 0.25U insulin (Sigma) per kg of body weight. Following the glucose injection, glycemia was measured every 30 min for 2 hours. To measure the glycaemia, the tail of the animals was pricked with a 27G needle and a drop of blood was placed on the glucometer (ACCU-CHECK AVIVA, Roche). […]
# as §2
# Infrared imaging of mice. Infrared images were taken on the last day of metabolic analysis using a FLIR T430sc Infrared Camera. These images were into RAW files and then analyzed in AMIDE. A box was drawn over region of interest (ROI); interscapular (70×30), inguinal (35×35) and dorsal. The 10% top warmest pixels were used for interscapular and inguinal quantifications. The 20% top warmest pixels were used for dorsal quantifications. […]
# [4] = biological target: PDGFRA/A homodimers (Homo sapiens, UniProt P16234); details: Gilbertson et al. 2001; cited from earlier work
# Sequence of PDGFRA/A homodimers (P16234 24-1089, species assumed): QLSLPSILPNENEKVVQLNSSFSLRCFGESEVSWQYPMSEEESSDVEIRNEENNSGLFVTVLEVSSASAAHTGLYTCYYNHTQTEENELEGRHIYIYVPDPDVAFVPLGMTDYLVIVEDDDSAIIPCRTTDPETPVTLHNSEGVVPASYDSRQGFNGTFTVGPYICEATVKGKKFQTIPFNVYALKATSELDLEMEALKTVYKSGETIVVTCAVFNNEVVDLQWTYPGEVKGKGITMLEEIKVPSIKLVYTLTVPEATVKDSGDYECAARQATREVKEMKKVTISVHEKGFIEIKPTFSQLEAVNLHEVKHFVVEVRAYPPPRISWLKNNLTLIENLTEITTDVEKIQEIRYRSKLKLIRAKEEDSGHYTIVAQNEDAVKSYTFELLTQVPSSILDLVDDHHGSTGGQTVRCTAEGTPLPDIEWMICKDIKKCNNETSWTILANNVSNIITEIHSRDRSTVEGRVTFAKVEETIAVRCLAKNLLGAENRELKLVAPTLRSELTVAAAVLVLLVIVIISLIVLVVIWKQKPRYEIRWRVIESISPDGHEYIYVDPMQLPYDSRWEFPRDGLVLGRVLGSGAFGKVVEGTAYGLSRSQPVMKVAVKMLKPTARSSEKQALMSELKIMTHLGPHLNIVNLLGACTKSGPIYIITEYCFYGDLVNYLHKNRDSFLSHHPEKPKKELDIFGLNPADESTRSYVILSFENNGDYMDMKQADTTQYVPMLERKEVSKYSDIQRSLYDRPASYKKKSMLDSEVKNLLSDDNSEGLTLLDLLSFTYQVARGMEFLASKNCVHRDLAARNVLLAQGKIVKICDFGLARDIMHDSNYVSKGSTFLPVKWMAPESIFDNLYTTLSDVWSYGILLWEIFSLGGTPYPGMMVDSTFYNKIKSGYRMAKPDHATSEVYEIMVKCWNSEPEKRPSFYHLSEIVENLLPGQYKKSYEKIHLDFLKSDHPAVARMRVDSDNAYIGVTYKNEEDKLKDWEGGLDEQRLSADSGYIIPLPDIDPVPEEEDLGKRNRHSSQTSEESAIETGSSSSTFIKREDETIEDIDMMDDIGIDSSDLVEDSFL
# [5] = biological target: PDGFRB/B homodimers (Homo sapiens, UniProt P09619); details: Gilbertson et al. 2001; cited from earlier work
# Sequence of PDGFRB/B homodimers (P09619 33-1106, species assumed): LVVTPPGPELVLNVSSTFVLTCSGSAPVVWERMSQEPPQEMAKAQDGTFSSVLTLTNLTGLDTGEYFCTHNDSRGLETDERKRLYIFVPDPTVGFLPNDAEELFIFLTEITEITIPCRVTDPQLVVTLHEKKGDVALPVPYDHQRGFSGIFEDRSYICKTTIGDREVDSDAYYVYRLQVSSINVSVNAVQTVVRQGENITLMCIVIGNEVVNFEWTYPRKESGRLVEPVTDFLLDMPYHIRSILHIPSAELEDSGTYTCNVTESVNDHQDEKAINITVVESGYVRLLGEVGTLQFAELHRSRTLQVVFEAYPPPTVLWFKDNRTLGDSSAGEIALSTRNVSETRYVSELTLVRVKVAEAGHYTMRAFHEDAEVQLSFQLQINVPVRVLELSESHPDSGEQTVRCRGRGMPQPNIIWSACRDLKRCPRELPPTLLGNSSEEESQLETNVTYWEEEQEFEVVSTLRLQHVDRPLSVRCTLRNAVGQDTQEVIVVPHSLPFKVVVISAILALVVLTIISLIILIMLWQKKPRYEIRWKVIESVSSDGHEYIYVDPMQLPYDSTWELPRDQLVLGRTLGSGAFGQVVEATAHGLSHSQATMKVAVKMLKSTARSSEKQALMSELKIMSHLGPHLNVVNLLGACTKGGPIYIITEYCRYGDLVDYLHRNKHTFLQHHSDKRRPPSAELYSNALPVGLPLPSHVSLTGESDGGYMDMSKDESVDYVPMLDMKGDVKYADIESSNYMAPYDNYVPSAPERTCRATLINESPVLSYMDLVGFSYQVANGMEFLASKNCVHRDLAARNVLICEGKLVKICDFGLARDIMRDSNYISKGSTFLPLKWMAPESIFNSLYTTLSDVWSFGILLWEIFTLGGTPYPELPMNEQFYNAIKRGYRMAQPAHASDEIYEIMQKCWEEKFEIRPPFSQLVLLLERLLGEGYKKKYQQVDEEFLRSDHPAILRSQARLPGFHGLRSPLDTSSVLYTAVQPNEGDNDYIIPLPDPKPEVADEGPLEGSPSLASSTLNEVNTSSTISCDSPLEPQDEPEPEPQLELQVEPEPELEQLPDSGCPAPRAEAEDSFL
# [6] = 10% lipid diet + PLX5622 for 8 weeks
molecule,measurement,setting,value
IGF1: recombinant mouse IGF1 (R&D systems),rescue of bodipy staining (lipid storage),[1],not
COc1ncc(F)cc1CNc1ccc(Cc2c[nH]c3ncc(C)cc23)c(F)n1 [PLX5622],Pdgfc expression in adipose tissue,[2]; 10% lipid diet + PLX5622,decreased
same,adipocyte size,[2]; 10% lipid diet + PLX5622,decreased
same,liver inflammation,[2]; 10% lipid diet + PLX5622,decreased
same,adipose tissue mass,[2]; [6],decreased
same,weight gain,[2]; [6],decreased
same,Dio2 expression,"[2]; iBAT, PLX5622 in diet",increased
same,Ucpl expression,"[2]; iBAT, PLX5622 in diet",increased
same,Dio2 expression in the iBAT,[3],increased
same,F4/80+ Tim4- and Tim4+ macrophages,[3],lacked both F4/80^+ Tim4^- and Tim4^+ macrophages
same,Ucpl expression in the iBAT,[3],increased
same,TNF/IL1 production,[3]; 45% lipid diet,protected against
same,hepatic steatosis,[3]; 45% lipid diet,protected against
same,metabolic syndrome,[3]; 45% lipid diet,protected against
same,Pdgfcc expression in fat pads,[3]; high fat diet,did not increase
same,adipocyte hypertrophy,[3]; high fat diet,did not develop adipocyte hypertrophy
same,visceral and subcutaneous white adipose tissue mass,[3]; high fat diet,did not increase
same,weight gain,[3]; high fat diet,gained less weight than controls
B1,rescue of bodipy staining (lipid storage),[1],can also rescue lipid storage
B2,binding to PDGFRA/A homodimers,[4],high affinity
same,interaction with PDGFRB/B homodimers,[5],fails to interact
B3,rescue of bodipy staining (lipid storage),[1],rescues bodipy staining to control levels
